pIC50: −log10 of the molar value.
These compounds were tested against T1, BCL6::BCOR (Homo sapiens, UniProt P41182, C67R/C84N/C8Q) (assay: BCL6::BCOR ULight TR-FRET assay).
T1 construct: BCL6 (amino acids 5 to 129, with the following changes to the natural protein); made in house; host or cells: E. coli
Assay type: binding
Excerpt: Biological Methods BCL6::BCOR ULight TR-FRET Assay:
Biotinylated BCL6 protein corresponding to BCL6 (amino acids 5 to 129, with the following changes to the natural protein: C8Q, C67R, C84N) is expressed in E. coli with a carboxy-terminal Avi tag (amino acid sequence […]). The BCOR ULight peptide uses a direct carboxy-terminal ULight tag (PerkinElmer). The sequence of the peptide is CRSEIISTAPSSWVVPGP, with the amino terminus acetylated and the ULight tag attached to the cysteine. Compounds are dispensed onto assay plates (Proxiplate 384 PLUS, white, PerkinElmer) using an Access Labcyte Workstation with the Labcyte Echo 55×from a DMSO solution. For the chosen highest assay concentration of 100 μM, 150 nl of compound solution are transferred from a 10 mM DMSO compound stock solution. A series of 11 concentrations is transferred for each compound at which each concentration is fivefold lower than the previous one. DMSO is added such that every well has a total of 150 nl compound solution. 5 μL of 1 nM BCL6 protein in assay buffer (50 mM HEPES pH 7.3; 125 mM NaCl; 1 mM GSH; 0.01% Triton-X 100; 0.03% BSA) are added to the 150 nl of compounds. After 30 minutes incubation time at room temperature, 10 μL of a mix containing BCOR ULight peptide (100 nM final assay concentration) and Streptavidin-Europium (0.75 nM final assay concentration) are added. Plates are kept at room temperature. After 240 minutes incubation time the TR-FRET signal is measured in a PerkinElmer Envision HTS Multilabel Reader using the TR-FRET LANCE Ultra specs of PerkinElmer. Each plate contains negative controls (diluted DMSO instead of test compound; BCOR peptide and Streptavidin Europium mix with BCL6 protein) and positive controls (diluted DMSO instead of test compound; BCOR peptide and Streptavidin-Europium mix without BCL6 protein). Negative and positive control values are used for normalization.

Row | Compound | pIC50
1 | Cn1c(=O)c(OCC(=O)O)cc2cc(Nc3nc(N4CCc5ccccc5CC4)ncc3Cl)ccc21 [Compound I-106] | 6.68
2 | CCNC(=O)C1CCCN(c2ncc(Cl)c(Nc3ccc4c(c3)cc(OCC(=O)O)c(=O)n4C)n2)C1 (stereo not drawn) [Compound I-107] | 8.00
3 | Cn1c(=O)c(OCC(=O)O)cc2cc(Nc3nc(N4C[C@H]5C[C@@H](C4)c4ccccc45)ncc3Cl)ccc21 [Compound I-108] | 7.42
4 | Cn1c(=O)c(OCC(=O)O)cc2cc(Nc3nc(N4CCC(c5ccccc5)CC4)ncc3Cl)ccc21 [Compound I-109] | 7.68
5 | COCCN1CCN(c2ncc(Cl)c(Nc3ccc4c(c3)cc(OCC(=O)O)c(=O)n4C)n2)CC1C (stereo not drawn) [Compound I-110] | 7.77
6 | Cn1c(=O)c(OCC(=O)O)cc2cc(Nc3nc(N4CCC5(CCCCC5)CC4)ncc3Cl)ccc21 [Compound I-111] | 6.97
7 | CCOC1CCCN(c2ncc(Cl)c(Nc3ccc4c(c3)cc(OCC(=O)O)c(=O)n4C)n2)C1 (stereo not drawn) [Compound I-112] | 8.15
8 | C#CC1CCN(c2ncc(Cl)c(Nc3ccc4c(c3)cc(OCC(=O)O)c(=O)n4C)n2)CC1 [Compound I-113] | 8.15
9 | CC1CN(c2ncc(Cl)c(Nc3ccc4c(c3)cc(OCC(=O)O)c(=O)n4C)n2)CCS1 (stereo not drawn) [Compound I-114] | 8.05
10 | Cn1cnc2c1CCN(c1ncc(Cl)c(Nc3ccc4c(c3)cc(OCC(=O)O)c(=O)n4C)n1)C2 [Compound I-115] | 8.05
11 | Cn1c(=O)c(OCC(=O)O)cc2cc(Nc3nc(N4CCc5[nH]nnc5C4)ncc3Cl)ccc21 [Compound I-116] | 8.00
12 | C[C@H]1CN(c2ncc(Cl)c(Nc3ccc4c(c3)cc(OCC(=O)O)c(=O)n4C)n2)CCO1 [Compound I-117] | 7.96
13 | Cn1c(=O)c(OCC(=O)O)cc2cc(Nc3nc(N4CCCC(F)(F)CC4)ncc3Cl)ccc21 [Compound I-118] | 7.80
14 | CC1CCCN(c2ncc(Cl)c(Nc3ccc4c(c3)cc(OCC(=O)O)c(=O)n4C)n2)C1 (stereo not drawn) [Compound I-119] | 7.89
15 | Cn1c(=O)c(OCC(=O)O)cc2cc(Nc3nc(N4CCC(N5CCOCC5)C4)ncc3Cl)ccc21 (stereo not drawn) [Compound I-120] | 7.96
16 | CC1CCN(c2ncc(Cl)c(Nc3ccc4c(c3)cc(OCC(=O)O)c(=O)n4C)n2)CC1 [Compound I-121] | 8.00
17 | CCC1CN(c2ncc(Cl)c(Nc3ccc4c(c3)cc(OCC(=O)NC)c(=O)n4C)n2)CCN1CC(F)F (stereo not drawn) [Compound I-122] | 8.22
18 | CNC(=O)COc1cc2cc(Nc3nc(N4CCCC(CCCCN5CCCC5)C4)ncc3Cl)ccc2n(C)c1=O (stereo not drawn) [Compound I-123] | 8.15
19 | CNC(=O)COc1cc2cc(Nc3nc(N4CCC5CN(Cc6ccccc6)CC54)ncc3Cl)ccc2n(C)c1=O (stereo not drawn) [Compound I-125] | 8.00
20 | CCN(CC)CCCCC1CCCN(c2ncc(Cl)c(Nc3ccc4c(c3)cc(OCC(=O)NC)c(=O)n4C)n2)C1 (stereo not drawn) [Compound I-126] | 8.15
21 | CNC(=O)COc1cc2cc(Nc3nc(N4CCCC(CN5CCCCC5)C4)ncc3Cl)ccc2n(C)c1=O (stereo not drawn) [Compound I-127] | 8.05
22 | CCCN(CCC)CCC1CCN(c2ncc(Cl)c(Nc3ccc4c(c3)cc(OCC(=O)NC)c(=O)n4C)n2)CC1 [Compound I-128] | 8.15
23 | C[C@@H]1C[C@H](C)CN(c2ncc(Cl)c(Nc3ccc4c(c3)cc(OCC(=O)O)c(=O)n4C)n2)C1 [Compound I-131, 2-{[6-({5-chloro-2-[cis-3,5-dimethylpiperidin-1-yl]pyrimidin-4-yl}amino)-1-methyl-2-oxo-1,2-dihydroquinolin-3-yl]oxy}-acetic acid] | 8.30

Row | Compound | pIC50
24 | Cn1c(=O)c(OCC(=O)O)cc2cc(Nc3nc(N4CCC(F)CC4)ncc3Cl)ccc21 [Compound I-132, 2-[(6-{[5-chloro-2-(4-fluoropiperidin-1-yl)pyrimidin-4-yl]amino}-1-methyl-2-oxo-1,2-dihydro-quinolin-3-yl)oxy]acetic acid] | 8.30
25 | C[C@@H]1C[C@H](C)CN(c2ncc(Cl)c(Nc3ccc4c(c3)cc(OCC(=O)N(C)C)c(=O)n4C)n2)C1 [Compound I-133, 2-{[6-({5-chloro-2-[cis-3,5-dimethyl-piperidin-1-yl]pyrimidin-4-yl}amino)-1-methyl-2-oxo-1,2-dihydroquinolin-3-yl]oxy}-N,N-dimethylacetamide] | 7.54
26 | COCCN(C)C(=O)COc1cc2cc(Nc3nc(N4C[C@H](C)C[C@H](C)C4)ncc3Cl)ccc2n(C)c1=O [Compound I-134] | 7.11
27 | C[C@@H]1C[C@H](C)CN(c2ncc(Cl)c(Nc3ccc4c(c3)cc(OCC(=O)NCCO)c(=O)n4C)n2)C1 [Compound I-135] | 7.80
28 | C[C@@H]1C[C@H](C)CN(c2ncc(Cl)c(Nc3ccc4c(c3)cc(OCC(=O)NCC(O)C(F)(F)F)c(=O)n4C)n2)C1 (stereo partly drawn) [Compound I-136] | 6.57
29 | CCNC(=O)COc1cc2cc(Nc3nc(N4C[C@H](C)C[C@H](C)C4)ncc3Cl)ccc2n(C)c1=O [Compound I-137] | 7.68
30 | C[C@@H]1C[C@H](C)CN(c2ncc(Cl)c(Nc3ccc4c(c3)cc(OCC(=O)NCCN(C)C)c(=O)n4C)n2)C1 [Compound I-138] | 6.28
31 | C[C@@H]1C[C@H](C)CN(c2ncc(Cl)c(Nc3ccc4c(c3)cc(OCC(=O)OCCN(C)C)c(=O)n4C)n2)C1 [Compound I-139, 2-(dimethylamino)ethyl 2-{[6-({5-chloro-2-[cis-3,5-dimethylpiperidin-1-yl]pyrimidin-4-yl}amino)-1-methyl-2-oxo-1,2-dihydroquinolin-3-yl]oxy}acetate] | 8.22
32 | CC(CN(C)C)OC(=O)COc1cc2cc(Nc3nc(N4C[C@H](C)C[C@H](C)C4)ncc3Cl)ccc2n(C)c1=O (stereo partly drawn) [Compound I-140] | 8.30
33 | C[C@@H]1C[C@H](C)CN(c2ncc(Cl)c(Nc3ccc4c(c3)cc(OCC(=O)OCCCN(C)C)c(=O)n4C)n2)C1 [Compound I-141] | 8.05
34 | C[C@@H]1C[C@H](C)CN(c2ncc(Cl)c(Nc3ccc4c(c3)cc(OCC(=O)OCCN3CCOCC3)c(=O)n4C)n2)C1 [Compound I-142] | 8.30
35 | CNC(=O)COc1cc2cc(Nc3nc(N4CCC(C(=O)N(C)CCOCCN)CC4)ncc3Cl)ccc2n(C)c1=O [Compound I-143] | 8.22
36 | CNC(=O)COc1cc2cc(Nc3nc(N4CCC(C(=O)NCCOCCN)CC4)ncc3Cl)ccc2n(C)c1=O [Compound I-144] | 7.66
37 | CNC(=O)COc1cc2cc(Nc3nc(N4CCC(C(=O)NCCCCCN)CC4)ncc3Cl)ccc2n(C)c1=O [Compound I-145] | 8.22
38 | CNC(=O)COc1cc2cc(Nc3nc(N4CCC(C(=O)NCCCCCCN)CC4)ncc3Cl)ccc2n(C)c1=O [Compound I-146] | 8.22
39 | CNC(=O)COc1cc2cc(Nc3nc(N4CCC(C(=O)NCCOCCOCCN)CC4)ncc3Cl)ccc2n(C)c1=O [Compound I-147] | 8.30
40 | CNC(=O)COc1cc2cc(Nc3nc(N4CCC(C(=O)N(C)C)CC4)ncc3Cl)cc(OC)c2n(C)c1=O [Compound I-148, 1-[5-chloro-4-({8-methoxy-1-methyl-3-[(methylcarbamoyl)methoxy]-2-oxo-1,2-dihydroquinolin-6-yl}amino)pyrimidin-2-yl]-N,N-dimethylpiperidine-4-carboxamide] | 8.52
41 | CNC(=O)COc1cc2cc(Nc3nc(-n4nc(C)cc4C)ncc3Cl)ccc2n(C)c1=O [Compound I-149, 2-[(6-{[5-chloro-2-(3,5-dimethyl-1H-pyrazol-1-yl)pyrimidin-4-yl]amino}-1-methyl-2-oxo-1,2-dihydroquinolin-3-yl)oxy]-N-methylacetamide] | 7.92
42 | C[C@@H]1C[C@H](C)CN(c2ncc(Cl)c(Nc3ccc4c(c3)cc(SCC(=O)O)c(=O)n4C)n2)C1 [Compound I-150, 2-{[6-({5-chloro-2-[cis-3,5-dimethylpiperidin-1-yl]pyrimidin-4-yl}amino)-1-methyl-2-oxo-1,2-dihydroquinolin-3-yl]sulfanyl}acetic acid] | 7.07
43 | CNC(=O)COc1cc2cc(Nc3nc(N4CCC(C(=O)N(C)C)CC4)ncc3Cl)ccc2n(CCCO)c1=O [Compound I-151, 1-(5-chloro-4-{[1-(3-hydroxypropyl)-3-[(methyl-carbamoyl)methoxy]-2-oxo-1,2-dihydroquinolin-6-yl]amino}pyrimidin-2-yl)-N,N-dimethyl-piperidine-4-carboxamide] | 8.22
44 | CN(C)C(=O)C1CCN(c2ncc(Cl)c(Nc3ccc4c(c3)cc(OCC(=O)O)c(=O)n4C)n2)CC1 [Compound I-152, 2-{[6-({5-chloro-2-[4-(dimethylcarbamoyl)piperidin-1-yl]pyrimidin-4-yl}amino)-1-methyl-2-oxo-1,2-dihydroquinolin-3-yl]oxy}acetic acid] | 8.30
45 | Cc1cc(C)n(-c2ncc(Cl)c(Nc3ccc4c(c3)cc(OCC(=O)O)c(=O)n4C)n2)n1 [Compound I-153, 2-[(6-{[5-chloro-2-(3,5-dimethyl-1H-pyrazol-1-yl)pyrimidin-4-yl]amino}-1-methyl-2-oxo-1,2-dihydroquinolin-3-yl)oxy]acetic acid] | 7.96

Reference: patent US11001570B2, “6-amino-quinolinone compounds and derivatives as BCL6 inhibitors” (Boehringer Ingelheim International GmbH, priority 2016, dated 2021)
